Data reported in ChEMBL document CHEMBL4834431, “Design of Dimeric Bile Acid Derivatives as Potent and Selective Human NTCP Inhibitors” (J Med Chem, 2021).
The source made the active and inactive calls. The rule behind the calls is not given here.

How the values were obtained:
Hepatitis B virus [1] = experiment: Antiviral activity against HBV infected in human HepG2-NTCP cells assessed as reduction in intracellular accumulation of HBcAg at 1 uM by immunostaining based fluorescence microscopic analysis; assay type: functional, organism-based
[2] = target: T1, Solute carrier organic anion transporter family member 1B1 (Homo sapiens, UniProt Q9Y6L6); experiment: Inhibition of human OATP1B1-mediated [3H]-Estrone sulfate uptake expressed in human HepG2 cells at 2 uM; assay type: cell-based; details: hepg2, 2 µM
T1 sequence (Q9Y6L6 whole entry): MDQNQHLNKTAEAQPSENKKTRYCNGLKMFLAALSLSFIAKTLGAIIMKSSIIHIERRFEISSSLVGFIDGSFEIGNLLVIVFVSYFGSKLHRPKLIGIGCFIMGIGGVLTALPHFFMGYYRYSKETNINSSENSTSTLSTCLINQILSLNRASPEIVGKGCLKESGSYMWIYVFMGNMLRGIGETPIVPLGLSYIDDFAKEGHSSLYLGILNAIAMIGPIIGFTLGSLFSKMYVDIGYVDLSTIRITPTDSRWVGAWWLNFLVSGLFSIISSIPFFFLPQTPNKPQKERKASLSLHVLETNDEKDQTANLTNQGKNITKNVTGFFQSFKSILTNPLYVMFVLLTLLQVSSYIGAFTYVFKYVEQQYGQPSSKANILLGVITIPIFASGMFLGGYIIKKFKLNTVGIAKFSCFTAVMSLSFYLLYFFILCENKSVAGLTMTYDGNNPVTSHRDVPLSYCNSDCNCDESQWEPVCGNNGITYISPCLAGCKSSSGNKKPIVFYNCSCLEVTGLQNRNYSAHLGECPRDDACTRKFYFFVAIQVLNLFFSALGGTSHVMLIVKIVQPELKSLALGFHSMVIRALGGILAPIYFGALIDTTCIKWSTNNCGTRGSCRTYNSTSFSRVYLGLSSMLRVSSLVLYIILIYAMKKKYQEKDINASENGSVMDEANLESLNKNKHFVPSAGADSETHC

[3] = target: T2, Hepatic sodium/bile acid cotransporter (Homo sapiens, UniProt Q14973); experiment: Inhibition of FITC-labeled HBV Pre-S1 polypeptide binding to human NTCP expressed in HepG2 cells after 2 to 3 hrs by confocal microscopic analysis; assay type: cell-based; details: time 2-3 hrs
T2 sequence (Q14973 whole entry): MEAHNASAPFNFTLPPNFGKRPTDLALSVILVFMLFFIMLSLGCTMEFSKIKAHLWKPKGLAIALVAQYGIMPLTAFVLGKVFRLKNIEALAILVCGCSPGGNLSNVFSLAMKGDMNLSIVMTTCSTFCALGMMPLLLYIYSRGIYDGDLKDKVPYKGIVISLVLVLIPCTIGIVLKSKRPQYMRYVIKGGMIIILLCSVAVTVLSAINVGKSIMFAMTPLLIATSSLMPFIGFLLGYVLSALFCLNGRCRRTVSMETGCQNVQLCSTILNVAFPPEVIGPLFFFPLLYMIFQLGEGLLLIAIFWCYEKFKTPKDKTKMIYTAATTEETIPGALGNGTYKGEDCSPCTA

Hepatitis delta virus = experiment: Antiviral activity against HDV infected in human HepG2-NTCP cells assessed as reduction in intranuclear accumulation of HDV delta antigen at 5 uM incubated for 24 hrs followed by replacement with fresh medium and measured at day 5 post infection by DAPI staining based confocal microscopic analysis (reference value: 12.1 %); assay type: functional; parameters: scale not given: the % may be the effect or the level left
[4] = target: T3, Hepatic sodium/bile acid cotransporter (Mus musculus, UniProt O08705); experiment: Inhibition of mouse NTCP-mediated [3H]-TCA uptake expressed in human HepG2 cells; assay type: cell-based
T3 sequence (O08705 whole entry): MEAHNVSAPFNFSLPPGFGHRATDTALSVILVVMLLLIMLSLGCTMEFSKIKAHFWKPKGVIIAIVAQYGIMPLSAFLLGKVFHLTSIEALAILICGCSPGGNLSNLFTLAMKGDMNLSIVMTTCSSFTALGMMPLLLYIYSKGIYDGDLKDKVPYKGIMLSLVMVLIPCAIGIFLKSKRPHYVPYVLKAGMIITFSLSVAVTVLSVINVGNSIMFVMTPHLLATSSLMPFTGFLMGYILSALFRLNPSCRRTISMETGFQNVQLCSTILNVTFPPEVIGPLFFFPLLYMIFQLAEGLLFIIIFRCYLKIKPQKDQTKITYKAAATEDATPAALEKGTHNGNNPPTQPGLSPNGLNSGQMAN

[5] = target: T2, Hepatic sodium/bile acid cotransporter; experiment: Inhibition of human NTCP-mediated [3H]-TCA uptake expressed in human HepG2 cells; assay type: cell-based; details: for inhibition (INH): human, hepg2
Hepatitis B virus [6] = experiment: Antiviral activity against HBV infected in human HepG2-NTCP cells assessed as reduction in HBeAg secretion at 1 uM pre-infected with virus followed by compound addition by ELISA; assay type: functional, organism-based
Hepatitis B virus [7] = experiment: Antiviral activity against HBV infected in human HepG2-NTCP cells assessed as reduction in intracellular accumulation of HBsAg at 1 uM by immunostaining based fluorescence microscopic analysis; assay type: functional, organism-based
[8] = target: T4, Ileal sodium/bile acid cotransporter (Homo sapiens, UniProt Q12908); experiment: Inhibition of human ASBT-mediated [3H]-TCA uptake expressed in human HepG2 cells at 2 uM; assay type: cell-based; details: hepg2, 2 µM
T4 sequence (Q12908 whole entry): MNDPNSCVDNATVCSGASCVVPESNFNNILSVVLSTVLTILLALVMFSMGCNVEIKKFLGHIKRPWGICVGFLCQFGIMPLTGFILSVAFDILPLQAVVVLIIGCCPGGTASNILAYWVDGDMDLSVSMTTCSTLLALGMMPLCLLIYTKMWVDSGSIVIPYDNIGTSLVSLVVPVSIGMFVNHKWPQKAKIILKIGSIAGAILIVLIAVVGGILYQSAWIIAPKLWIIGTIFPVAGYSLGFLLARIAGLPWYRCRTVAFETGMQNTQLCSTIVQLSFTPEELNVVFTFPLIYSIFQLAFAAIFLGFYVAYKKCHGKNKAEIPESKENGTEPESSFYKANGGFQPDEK

HepG2 = experiment: Inhibition of monkey NTCP-mediated [3H]-TCA uptake expressed in human HepG2 cells; assay type: cell-based; details: Macaca mulatta
Hepatitis B virus [9] = experiment: Antiviral activity against HBV infected in human HepG2-NTCP cells assessed as reduction in HBeAg secretion incubated for 24 hrs followed replacement with fresh medium and measured at day 5 post infection by ELISA; assay type: functional, organism-based
[10] = target: T2, Hepatic sodium/bile acid cotransporter; experiment: Inhibition of human NTCP-mediated [3H]-TCA uptake expressed in human HepG2 cells at 2 uM; assay type: cell-based; details: hepg2, 2 µM
Hepatitis B virus [11] = experiment: Antiviral activity against HBV infected in human HepG2-NTCP cells assessed as reduction in HBeAg secretion preincubated for 2 hrs followed by viral infection by ELISA; assay type: functional, organism-based
[12] = target: T2, Hepatic sodium/bile acid cotransporter; experiment: Inhibition of human NTCP-mediated NQL-064 uptake expressed in human HepG2 cells incubated for 30 mins; assay type: cell-based; details: hepg2, 0.5 h
Hepatocyte = experiment: Cytotoxicity against primary tupaia hepatocytes expressing NTCP assessed as reduction in cell viability at 100 uM after 48 hrs by Cell-Titer Glo assay; assay type: cell-based; details: scandentia
Hepatitis B virus [13] = experiment: Antiviral activity against HBV infected in human HepG2-NTCP cells assessed as reduction in HBeAg secretion at 1 uM preincubated with compound followed by viral infection by ELISA; assay type: functional, organism-based
[14] = target: T2, Hepatic sodium/bile acid cotransporter; experiment: Inhibition of human NTCP-mediated [3H]-Estrone sulfate uptake expressed in human HepG2 cells at 2 uM; assay type: cell-based; details: hepg2, 2 µM
[15] = target: T2, Hepatic sodium/bile acid cotransporter; experiment: Inhibition of human NTCP-mediated NQL-065 uptake expressed in human HepG2 cells incubated for 30 mins; assay type: cell-based; details: hepg2, 0.5 h

SMILES | Activity (Hepatitis B virus [1]) | inhibition (INH) [2] | inhibition (INH) [3] | Activity (Hepatitis delta virus) | inhibition (INH) [4] | inhibition (INH) [5] | Activity (Hepatitis B virus [6]) | Activity (Hepatitis B virus [7]) | inhibition (INH) [8] | inhibition (HepG2) | IC50 (Hepatitis B virus [9]) | inhibition (INH) [10] | Activity (Hepatitis B virus [11]) | inhibition (INH) [12] | Activity (Hepatocyte) | Activity (Hepatitis B virus [13]) | inhibition (INH) [14] | inhibition (INH) [15] | IC50 [5]
C[C@H](CCC(=O)O[C@@H]1CC[C@@]2(C)[C@@H](C1)C[C@H](O)[C@@H]1[C@@H]2CC[C@]2(C)[C@@H]([C@H](C)CCC(=O)NCCS(=O)(=O)O)CC[C@@H]12)[C@H]1CC[C@H]2[C@@H]3[C@@H](O)C[C@@H]4C[C@H](O)CC[C@]4(C)[C@H]3CC[C@]12C | Active | Not Active | Active | 1.7% | Active | Active | inactive | Active | Not Active | Active | 0.058 µM | Active | Active | Active | Non-Toxic | Active | Active | Active | 
C[C@H](CCC(=O)NCCS(=O)(=O)O)[C@H]1CC[C@H]2[C@@H]3[C@@H](O)C[C@@H]4C[C@H](NC(=O)CCCC(=O)N[C@@H]5CC[C@@]6(C)[C@@H](C5)C[C@H](O)[C@@H]5[C@@H]6CC[C@]6(C)[C@@H]([C@H](C)CCC(=O)NCCS(=O)(=O)O)CC[C@@H]56)CC[C@]4(C)[C@H]3CC[C@]12C | Active | Not Active | Active | 2.5% | Not Active | Active | inactive | Active | Not Active | inactive | 0.041 µM | Active | inactive | Active | Non-Toxic | Active | Active | Active | 0.0583 µM
